Consider eleven compounds from patent publication US7351732B2, “Cycloalkanedione derivatives, method for the production thereof and their pharmacological applications” (Schwarz Pharma S.L., priority 2002, dated 2008).

The target of assay [1] is T1, 5-HT2A receptors (Rattus norvegicus, UniProt P14842).
T1 construct: (b) 5-HT2A receptors, [^3H]ketanserin, rat cerebral cortex; from tissue; host or cells: rat cerebral cortex
The assay can be described thus: Radioligand displacement, 5-HT2A receptors, [3H]ketanserin. In kind it is binding. To be noted: rat cerebral cortex, read-out: Ki ± E.E. 5-HT2A. A general note: In a radioligand displacement assay an active substance lowers the binding of a labelled ligand.

Assay [2] addresses T2, 5-HT3 receptors (Rattus norvegicus, UniProt P35563).
T2 construct: (c) 5-HT3 receptors, [^3H]LY 278584, rat cerebral cortex; from tissue; host or cells: rat cerebral cortex
T2 sequence (P35563 24-483): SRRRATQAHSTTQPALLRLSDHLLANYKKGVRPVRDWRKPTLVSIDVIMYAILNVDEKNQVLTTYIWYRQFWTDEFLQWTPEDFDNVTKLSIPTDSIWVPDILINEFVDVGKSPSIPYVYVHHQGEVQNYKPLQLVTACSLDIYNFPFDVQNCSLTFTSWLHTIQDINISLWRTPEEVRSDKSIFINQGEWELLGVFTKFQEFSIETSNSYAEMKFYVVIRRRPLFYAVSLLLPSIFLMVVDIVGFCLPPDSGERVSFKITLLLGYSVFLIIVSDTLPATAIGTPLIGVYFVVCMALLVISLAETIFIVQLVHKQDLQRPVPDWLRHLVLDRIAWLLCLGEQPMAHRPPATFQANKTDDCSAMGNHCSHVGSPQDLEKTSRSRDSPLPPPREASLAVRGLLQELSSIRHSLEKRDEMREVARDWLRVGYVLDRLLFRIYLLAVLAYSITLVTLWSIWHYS
The assay can be described thus: Radioligand displacement, 5-HT3 receptors, [3H]LY 278584. The note with it: [3H]LY 278584, rat cerebral cortex; read-out: Ki ± E.E. 5-HT3. In kind it is binding.

In assay [3] the target is T3, 5-HT4 receptors (Rattus norvegicus, UniProt Q62758).
T3 construct: (d) 5-HT4 receptors, [^3H]GR 113808, rat striatum; from tissue; host or cells: rat striatum
The assay can be described thus: Radioligand displacement, 5-HT4 receptors, [3H]GR 113808. In kind it is binding. The note with it: [3H]GR 113808, rat striatum; read-out: Ki ± E.E. 5-HT4.

Assay [4] addresses T4, D2 receptors (Rattus norvegicus, UniProt P61169).
T4 construct: (g) D2 receptors, [^3H]spiperone, rat striatum; from tissue; host or cells: rat striatum
The assay can be described thus: Radioligand displacement, D2 receptors, [3H]spiperone. In kind it is binding. The note with it: rat striatum, read-out: Ki ± E.E. D2.

Assay [5] addresses T5, 5-human HT1A receptor (Homo sapiens, UniProt P08908).
T5 construct: expressed in transfected cells; host or cells: HeLa cells
T5 sequence (P08908 1-422): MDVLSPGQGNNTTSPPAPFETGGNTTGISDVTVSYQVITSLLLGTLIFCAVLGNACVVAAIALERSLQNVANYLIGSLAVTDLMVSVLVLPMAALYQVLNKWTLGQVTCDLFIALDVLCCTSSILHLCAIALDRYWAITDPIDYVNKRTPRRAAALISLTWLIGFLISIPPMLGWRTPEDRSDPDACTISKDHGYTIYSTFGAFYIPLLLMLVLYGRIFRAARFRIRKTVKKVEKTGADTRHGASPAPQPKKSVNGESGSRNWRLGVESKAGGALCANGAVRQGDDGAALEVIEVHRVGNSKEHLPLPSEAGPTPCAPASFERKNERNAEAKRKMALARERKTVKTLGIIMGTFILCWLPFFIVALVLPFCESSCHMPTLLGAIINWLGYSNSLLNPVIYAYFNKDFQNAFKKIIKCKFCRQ
The assay can be described thus: Test on adenylate cyclase in He-La cells (inhibition of forskolin stimulation). It counts as cell-based. The note with it: for EC50: inhibition of forskolin-stimulated adenylate cyclase, He-La cells transfected with 5-HT1A, read-out: CE50 (the source's name); for % Maximum inhibition: inhibition of the activation induced by forskolin. The text has this:
The functional character of the new compounds was initially determined by studying their effect on adenylate cyclase in He—La cells transfected with the […], measuring their inhibiting effect on the stimulation of the enzyme induced by forskolin (Table 3 below).

The test system of assay [6] is neurons of the hippocampal area CA1. The assay can be described thus: Hyperpolarization of neurons of the hippocampal area CA1. To be noted: dose-effect curves. It counts as cell-based.
In assay [7] the target is T6, 5-HT1A (Rattus norvegicus, UniProt P19327).
T6 sequence (P19327 1-422): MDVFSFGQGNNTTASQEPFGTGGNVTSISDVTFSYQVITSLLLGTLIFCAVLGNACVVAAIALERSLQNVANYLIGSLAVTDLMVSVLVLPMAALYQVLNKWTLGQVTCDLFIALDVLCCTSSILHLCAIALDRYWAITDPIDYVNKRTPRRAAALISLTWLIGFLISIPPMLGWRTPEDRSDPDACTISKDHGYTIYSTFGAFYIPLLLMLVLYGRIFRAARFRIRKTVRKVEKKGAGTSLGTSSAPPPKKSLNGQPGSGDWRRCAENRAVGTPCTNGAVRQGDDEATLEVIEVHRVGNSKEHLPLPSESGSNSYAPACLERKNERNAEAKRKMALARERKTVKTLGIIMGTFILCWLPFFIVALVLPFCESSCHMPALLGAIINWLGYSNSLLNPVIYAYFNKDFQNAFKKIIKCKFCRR
The assay can be described thus: Radioligand displacement, 5-HT1A receptors, [3H]-8-OH-DPAT. It counts as binding. Also on record: (a) 5-HT1A receptors, [^3H]-8-OH-DPAT, rat cerebral cortex; from tissue; host or cells: rat cerebral cortex. The note with it: rat cerebral cortex, read-out: Ki ± E.E. 5-HT1A.

For assay [8], the target named is T6, 5-HT1A. The assay can be described thus: [35S]-GTPγS fixation test to coronal sections of rat brain. In kind it is biochemical. Also on record: fixation test of [^35S]-GTPγS to coronal sections of rat brain; from tissue; host or cells: coronal sections of rat brain. The note with it: 10 μM. The method, then: The in vitro agonist character of the new compounds was also evaluated in some cases by the fixation test of [^35S]-GTPγS to coronal sections of rat brain.
Background: Binding of GTPγS marks nucleotide exchange on a G protein.

The target of assay [9] is T7, 5-HT7 receptors (Rattus norvegicus, UniProt P32305).
T7 construct: (e) 5-HT7 receptors, [^3H]-5-CT, rat hypothalamus; from tissue; host or cells: rat hypothalamus
The assay can be described thus: Radioligand displacement, 5-HT7 receptors, [3H]-5-CT. To be noted: [3H]-5-CT, rat hypothalamus; read-out: Ki ± E.E. 5-HT7. In kind it is binding.

Assay [10] concerns the target α1 receptors. The assay can be described thus: Radioligand displacement, α1 receptors, [3H]prazosin. It counts as binding. The note with it: rat cerebral cortex, read-out: Ki ± E.E. α1.
Assay [11] relates to 5-HT1A. The assay can be described thus: Mouse hypothermia test. In kind it is in vivo. The text has this: All compounds previously characterized in vitro as 5-HT1A agonists (Table 3) were delivered by subcutaneous injection to mice in order to quantify the hypothermia associated to stimulation of this serotonergic receptor subtype.
For assay [12], the system named is hippocampal area CA1. The assay can be described thus: Transient global ischemia model in gerbils. In kind it is in vivo. The note with it: gerbil, 1-5 mg/kg s.c., 30 min before and 24 and 48 h after ischemia. The text has this:
In the transient ischemia model in gerbils induced by temporary occlusion of both carotid arteries, the delivery of compounds no.

Assay [13] has as its system primary cultures of rat hippocampus. The assay can be described thus: Apoptotic neuronal death induced by serum deprivation. To be noted: 24 hours without serum; compared with compound no. 1.
Procedure: The neuroprotective effect of the compounds considered was studied in experimental models in vitro, using primary cultures of rat hippocampus exposed to serum deprivation, to a toxic concentration of glutamate, or incubated in conditions of hypoxia and absence of glucose.

Where only a bound is given, the exact number is not on record here.

T3 sequence (Q62758 whole entry): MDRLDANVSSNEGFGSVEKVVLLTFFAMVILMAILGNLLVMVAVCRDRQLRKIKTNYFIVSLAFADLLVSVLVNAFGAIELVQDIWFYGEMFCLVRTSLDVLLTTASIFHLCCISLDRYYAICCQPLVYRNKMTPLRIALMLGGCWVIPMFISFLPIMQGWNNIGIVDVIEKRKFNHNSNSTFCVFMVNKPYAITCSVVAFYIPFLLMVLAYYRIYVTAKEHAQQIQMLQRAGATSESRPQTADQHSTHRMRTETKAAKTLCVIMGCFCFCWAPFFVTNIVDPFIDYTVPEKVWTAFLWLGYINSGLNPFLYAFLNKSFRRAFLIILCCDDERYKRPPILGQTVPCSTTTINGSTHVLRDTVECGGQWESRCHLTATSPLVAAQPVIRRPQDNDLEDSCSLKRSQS
T7 sequence (P32305 whole entry): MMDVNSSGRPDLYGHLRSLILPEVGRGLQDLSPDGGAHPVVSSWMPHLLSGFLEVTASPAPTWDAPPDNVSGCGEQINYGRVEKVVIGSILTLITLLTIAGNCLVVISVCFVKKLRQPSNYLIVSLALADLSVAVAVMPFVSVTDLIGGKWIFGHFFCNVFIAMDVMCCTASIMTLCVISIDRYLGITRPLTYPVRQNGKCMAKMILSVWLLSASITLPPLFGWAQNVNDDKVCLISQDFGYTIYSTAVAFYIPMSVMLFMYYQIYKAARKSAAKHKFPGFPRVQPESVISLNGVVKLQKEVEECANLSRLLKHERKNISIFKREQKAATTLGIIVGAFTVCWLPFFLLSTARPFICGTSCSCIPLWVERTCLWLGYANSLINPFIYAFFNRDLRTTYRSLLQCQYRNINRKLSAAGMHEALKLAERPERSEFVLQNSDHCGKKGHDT
T1 sequence (P14842 whole entry): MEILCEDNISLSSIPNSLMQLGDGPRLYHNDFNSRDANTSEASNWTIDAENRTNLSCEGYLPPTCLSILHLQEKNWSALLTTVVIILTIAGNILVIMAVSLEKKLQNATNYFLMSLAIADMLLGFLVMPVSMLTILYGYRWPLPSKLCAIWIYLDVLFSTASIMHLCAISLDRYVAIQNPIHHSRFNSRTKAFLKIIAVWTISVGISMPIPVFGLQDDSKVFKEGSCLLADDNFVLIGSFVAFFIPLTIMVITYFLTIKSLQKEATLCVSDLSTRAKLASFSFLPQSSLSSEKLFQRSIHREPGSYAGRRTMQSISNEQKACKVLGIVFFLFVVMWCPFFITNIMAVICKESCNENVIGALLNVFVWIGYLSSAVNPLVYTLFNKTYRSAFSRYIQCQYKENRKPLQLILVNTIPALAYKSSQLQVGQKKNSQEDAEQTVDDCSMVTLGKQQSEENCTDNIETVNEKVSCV
T4 sequence (P61169 whole entry): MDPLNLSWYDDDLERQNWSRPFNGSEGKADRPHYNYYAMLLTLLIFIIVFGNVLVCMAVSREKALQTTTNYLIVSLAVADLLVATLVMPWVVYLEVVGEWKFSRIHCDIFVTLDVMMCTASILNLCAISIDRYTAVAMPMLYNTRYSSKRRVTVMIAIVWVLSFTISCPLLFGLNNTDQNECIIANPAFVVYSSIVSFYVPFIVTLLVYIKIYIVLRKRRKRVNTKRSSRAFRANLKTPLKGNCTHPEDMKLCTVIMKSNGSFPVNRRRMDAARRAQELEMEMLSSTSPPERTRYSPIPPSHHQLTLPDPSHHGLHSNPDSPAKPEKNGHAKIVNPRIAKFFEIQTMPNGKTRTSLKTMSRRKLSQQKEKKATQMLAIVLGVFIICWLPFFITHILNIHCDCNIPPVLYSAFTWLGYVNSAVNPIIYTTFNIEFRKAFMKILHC

Usually Ki stands for the dissociation constant of the complex between target and ligand, obtained from inhibition or displacement. Take `O=C1C2SCCN2C(=O)N1CCCCNCC1CCc2ccccc2O1` (racemic) [Compound 2, (±)-2-[4-[(Chroman-2-yl)methylamine]butyl]-1,3-dioxoperhydroimidazo[1,5-b]thiazol]: the Ki is greater than 1000 nM in [1]; greater than 10000 nM in assay [2]; greater than 10000 nM in [3]; greater than 10000 nM in assay [4]; 19.9 ± 6 nM in assay [7]. Also, the EC50 in assay [5] was 18.9 nM. In addition, in assay [5], the “% Maximum inhibition” value is listed as 94.5%. Further, the “Potency in hyperpolarization test compared with 8-OH-DPAT” value in [6] was “indistinguishable in potency to that of the 5-HT1A, 8-OH-DPAT type agonist”.

Turning to `O=C1C2CSCN2C(=O)N1CCCCNCC1CCc2ccccc2O1` (racemic) [Compound 3, (±)-2-[4-[(Chroman-2-yl)methylamine]butyl]-1,3-dioxoperhydroimidazo[1,5-c]-thiazol], in [5], the EC50 was found to be 31.5 nM and the “% Maximum inhibition” value is on record as 89.3%. The Ki in assay [7] came out at 13.2 ± 1 nM. Besides, the “[35S]-GTPγS fixation compared with 8-OH-DPAT” value in [8] was “especially similar to those obtained with the 5-HT1A, 8-OH-DPAT agonist prototype”.

Turning to `O=C1CSC(=O)N1CCCCNCC1CCc2ccccc2O1` (racemic) [Compound 4, (±)-3-[4-[(Chroman-2-yl)methylamine]butyl]-2,4-dioxothiazolidin], in [5], the EC50 was 11.6 nM and the “% Maximum inhibition” value is 89.6%. Besides, in [7], the inhibition constant (Ki) was found to be 30.1 ± 0.6 nM.

On to `O=C1CSC(=O)N1CCCCNCCc1cccc2ccccc12` [Compound 10, 3-[4-[2-(Naphth-1-yl)ethylamine]butyl]-2,4-dioxothiazolidin], for which the Ki in assay [1] was greater than 1000 nM; in assay [2], greater than 1000 nM; in assay [3], greater than 1000 nM; in assay [9], greater than 10000 nM; in [10] it was greater than 1000 nM; in assay [4], greater than 10000 nM. In addition, the Ki in assay [7] was 15 ± 1 nM.

Consider `O=C1C2CCCN2C(=O)N1CCCCNCCOc1ccccc1` (centres unmarked) [Compound 12, 2-[4-[2-(Phenoxy)ethylamine]butyl]-1,3-dioxoperhydropyrrolo[1,2-c]imidazol], for which the inhibitory constant (Ki) in [1] was greater than 10000 nM; in assay [2], greater than 1000 nM; in [3], greater than 10000 nM; in [9], greater than 1000 nM; in assay [10], greater than 1000 nM; in [4], greater than 1000 nM. For the same compound, in [7], the inhibition constant Ki amounted to 25.5 ± 0.9 nM. Moreover, in assay [5], the EC50 is 76.2 nM. Further, the “% Maximum inhibition” value in [5] worked out at 87.4%. In assay [11] (subcutaneous injection, rectal temperature), the Minimum effective dosage worked out at 2.5 mg/kg. For the same compound, the Hypothermic effect in assay [11] (subcutaneous, at minimum effective dose) worked out at 1.4 °C. In addition, the “Prevention of ischemic injury in hippocampal area CA1 (Nissl stain)” value in assay [12] was “significantly prevented the injury”. In assay [13], the “Neuroprotective effect in serum deprivation” value was “the degree of protection was somewhat below”.

As for `O=C1CSC(=O)N1CCCCNCCOc1ccccc1` [Compound 13, 3-[4-[2-(Phenoxy)ethylamine]butyl]-2,4-dioxothiazolidin], the inhibition constant Ki in assay [1] was greater than 10000 nM; in assay [2] it was greater than 10000 nM; in [3], greater than 1000 nM; in assay [9] it was 55 ± 0.3 nM; in assay [10] it was 26.9 ± 4.5 nM; in assay [4], greater than 10000 nM. In addition, the Ki in assay [7] came out at 9.8 ± 0.7 nM.

As for `O=C1C2CCCN2C(=O)N1CCCCNCCOc1cccc2ccccc12` (centres unmarked) [Compound 14, 2-[4-[2-(Naphth-1-oxi)ethylamine]butyl]-1,3-dioxoperhydropyrrolo[1,2-c]imidazol], the Ki in assay [1] was 41.5 ± 7.5 nM; in assay [2], greater than 1000 nM; in assay [3] it was greater than 10000 nM; in assay [9] it was 42.6 ± 4.4 nM; in assay [10], 30.9 ± 4.9 nM; in [4], greater than 1000 nM. The inhibitory constant (Ki) in assay [7] amounted to 2.4 ± 0.6 nM.

As to `O=C1C2CCCN2C(=O)N1CCCCNCc1nc2ccccc2[nH]1` (centres unmarked) [Compound 16, 2-[4-[(Benzimidazol-2-yl)methylamine]butyl]-1,3-dioxoperhydropyrrolo[1,2-c]imidazol], the inhibition constant Ki is greater than 10000 nM in [1]; greater than 1000 nM in assay [2]; greater than 10000 nM in assay [3]; greater than 10000 nM in [9]; greater than 1000 nM in assay [10]; greater than 10000 nM in assay [4]. In addition, in [7], the inhibition constant (Ki) was greater than 10000 nM.

As for `COc1ccccc1CCCNCCCCN1C(=O)C2CCCN2C1=O` (centres unmarked) [Compound 19, 2-[4-[3-(o-Methoxyphenyl)propylamine]butyl]-1,3-dioxoperhydropyrrolo[1,2-c]imidazol], the inhibitory constant (Ki) is greater than 1000 nM in [1]; greater than 10000 nM in [2]; greater than 10000 nM in assay [3]; greater than 10000 nM in assay [9]; greater than 1000 nM in [10]; greater than 10000 nM in assay [4]. Besides, the inhibition constant (Ki) in assay [7] was 73.9 ± 5 nM.

Consider `COc1ccccc1CCCCNCCCCN1C(=O)C2CCCN2C1=O` (centres unmarked) [Compound 20, 2-[4-[4-(o-Methoxyphenyl)butylamine]butyl]-1,3-dioxoperhydropyrrolo[1,2-c]imidazol], for which the Ki in assay [1] is greater than 10000 nM; in [2] it was greater than 1000 nM; in [3], greater than 10000 nM; in assay [9] it was greater than 10000 nM; in [10], greater than 1000 nM; in [4], greater than 10000 nM. In [7], the Ki is 138 ± 26.3 nM.

As to `COc1ccccc1CCCNCCCN1C(=O)C2CCCN2C1=O` (centres unmarked) [Compound 21, 2-[3-[3-(o-Methoxyphenyl)propylamine]propyl]-1,3-dioxoperhydropyrrolo[1,2-c]imidazol], the inhibitory constant (Ki) in assay [1] is greater than 10000 nM; in [2], greater than 10000 nM; in [3], greater than 1000 nM; in [9], greater than 10000 nM; in assay [10], greater than 1000 nM; in assay [4] it was greater than 10000 nM. In addition, the inhibition constant Ki in assay [7] is greater than 1000 nM.
